Data published in US20160108381A1, “DNA POLYMERASES AND MUTANTS THEREOF” (LIFE TECHNOLOGIES CORPORATION, priority 2001, published 2016).

Columns and labels:
[1] = biological target: T1, Thermotoga neapolitana (Tne) DNA polymerase, mutated to eliminate 3′ to 5′ and 5′ to 3′ exonuclease activity (Thermotoga neapolitana, UniProt B9K7T2); experiment: Steady-state kinetics, DNA- and RNA-dependent polymerase activity; type: biochemical
T1 construct: mutated to eliminate 3'-5' and 5'-3' exonuclease activity as in US 6,306,588 (recalled, unsure: D137A and D323A)
T1 sequence (B9K7T2 entry or part of it, stated change not applied): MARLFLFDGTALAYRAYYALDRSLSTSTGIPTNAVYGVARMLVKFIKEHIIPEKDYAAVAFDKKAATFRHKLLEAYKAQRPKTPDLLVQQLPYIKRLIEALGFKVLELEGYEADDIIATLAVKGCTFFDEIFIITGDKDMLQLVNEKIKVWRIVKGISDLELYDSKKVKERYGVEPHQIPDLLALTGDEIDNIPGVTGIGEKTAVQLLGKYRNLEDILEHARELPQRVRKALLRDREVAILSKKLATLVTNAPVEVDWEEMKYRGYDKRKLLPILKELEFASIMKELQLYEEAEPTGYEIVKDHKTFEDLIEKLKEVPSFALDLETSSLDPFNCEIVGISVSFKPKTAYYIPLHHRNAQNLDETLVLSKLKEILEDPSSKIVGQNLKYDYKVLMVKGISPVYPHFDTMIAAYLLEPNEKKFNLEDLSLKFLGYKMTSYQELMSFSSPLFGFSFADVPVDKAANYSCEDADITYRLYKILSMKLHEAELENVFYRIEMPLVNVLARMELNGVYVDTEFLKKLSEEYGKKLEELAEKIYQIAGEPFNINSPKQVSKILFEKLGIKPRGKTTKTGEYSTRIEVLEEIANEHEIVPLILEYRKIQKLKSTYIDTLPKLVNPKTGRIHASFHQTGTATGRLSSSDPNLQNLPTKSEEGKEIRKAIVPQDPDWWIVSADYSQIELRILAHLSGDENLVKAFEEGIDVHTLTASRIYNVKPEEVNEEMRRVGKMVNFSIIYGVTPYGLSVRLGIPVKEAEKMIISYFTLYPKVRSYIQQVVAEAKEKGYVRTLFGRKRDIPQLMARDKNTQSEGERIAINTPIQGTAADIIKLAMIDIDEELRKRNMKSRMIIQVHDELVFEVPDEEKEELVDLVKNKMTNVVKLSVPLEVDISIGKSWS
Method: (§1) Thermotoga neapolitana (Tne) DNA polymerase mutated to eliminate 3′ to 5′ and 5′ to 3′ exonuclease activity was cloned, engineered and purified as described in U.S. Pat. No. 6,306,588. SuperScript II reverse transcriptase (SS II RT) was from Invitrogen Corporation, Carlsbad, Calif.
(§2) Steady-state kinetic measurements.
(§3) The catalytic rate constant kcat and the Michaelis constant KM were determined for both the DNA-dependent and RNA-dependent polymerase activities for the polypeptides of the invention and these parameters were compared to those of Tne DNA polymerase enzyme and […]™ II reverse transcriptase. […]

[2] = biological target: SuperScript II reverse transcriptase (SSII, SS II RT), a modified M-MLV reverse transcriptase (Moloney murine leukemia virus isolate Shinnick, UniProt P03355); experiment: as above; type: biochemical
Method: as §1, §2, §3

[3] = biological target: T2, Clostridium thermosulfurogenes DNA polymerase, N-terminal His6 tag (Cth-His), SEQ ID NO:15 (Thermoanaerobacterium thermosulfurigenes, UniProt Q6X9R5); experiment: as above; settings: Table 34, DNA template, 2 mM MgCl2, 45 °C per footnote
T2 sequence (Q6X9R5 with tags, fused parts or gaps): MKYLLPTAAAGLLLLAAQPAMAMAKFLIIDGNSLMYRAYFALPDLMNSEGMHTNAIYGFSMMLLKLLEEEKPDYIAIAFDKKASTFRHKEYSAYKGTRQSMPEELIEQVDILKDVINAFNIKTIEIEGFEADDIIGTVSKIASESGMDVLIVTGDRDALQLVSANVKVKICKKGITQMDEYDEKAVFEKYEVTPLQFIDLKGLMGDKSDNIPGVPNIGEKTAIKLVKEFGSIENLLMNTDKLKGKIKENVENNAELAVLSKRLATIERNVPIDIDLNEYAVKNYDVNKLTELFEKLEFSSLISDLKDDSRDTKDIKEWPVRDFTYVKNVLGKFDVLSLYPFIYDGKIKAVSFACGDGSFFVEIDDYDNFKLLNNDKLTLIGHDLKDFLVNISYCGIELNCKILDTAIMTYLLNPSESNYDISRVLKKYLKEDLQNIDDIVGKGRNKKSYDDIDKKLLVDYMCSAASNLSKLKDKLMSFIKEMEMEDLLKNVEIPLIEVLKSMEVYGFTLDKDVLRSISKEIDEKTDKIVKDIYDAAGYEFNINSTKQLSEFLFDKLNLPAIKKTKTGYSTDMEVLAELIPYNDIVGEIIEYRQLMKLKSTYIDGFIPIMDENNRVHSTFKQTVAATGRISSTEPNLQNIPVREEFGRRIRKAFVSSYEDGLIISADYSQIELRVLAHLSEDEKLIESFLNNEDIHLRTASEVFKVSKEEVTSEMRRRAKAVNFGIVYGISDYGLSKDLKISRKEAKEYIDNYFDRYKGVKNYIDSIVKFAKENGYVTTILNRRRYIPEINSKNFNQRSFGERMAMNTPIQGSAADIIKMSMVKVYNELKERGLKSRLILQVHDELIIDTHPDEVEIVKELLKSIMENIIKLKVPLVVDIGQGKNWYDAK
From the text: (§4) Subcloning of genes for Cst and Cth DNA polymerases. In order to improve expression and simplify purification of Cst and Cth DNA polymerase, the genes were subcloned downstream of a T7 promoter and an amino-terminal His6 tag sequence was introduced using Gateway cloning technology (Invitrogen Corporation, Carlsbad, Calif.). The sequence of the DNA oligonucleotide used at the 5′ end of the Cst gene was: 5′-[…] ATAGAC 3′ (SEQ ID NO:37). The sequence of the DNA oligonucleotide used at the 5′ end of the Cth gene was: 5′-[…] […]-3′ (SEQ ID NO:38). The sequence of the DNA oligonucleotide used at the 3′ end of each gene was the same: 5′-[…] […] 3′ (SEQ ID NO:39). Purified pET26B plasmid DNA (Novagen Inc., Madison, Wis.) bearing the gene for Cst or Cth DNA polymerase was amplified by PCR utilizing the primers listed above and Platinum Taq HiFi DNA polymerase (Invitrogen Corporation, Carlsbad, Calif.). PCR products purified by agarose gel electrophoresis were cloned into Gateway vector pDON21 and transferred by recombination into vector pDEST17. […] Each final recombinant plasmid was transformed into the E. coli expression host BL21-AI (Invitrogen Corporation, Carlsbad, Calif.).
(§5) Purification of Cst-His and Cth-His DNA polymerases. E. coli cells (BL21AI) bearing the plasmid pDEST17 with the gene for Cst-His or Cth-His DNA polymerase were grown in 2.8-1 Fembach flasks in LB broth containing 50 μg/ml ampicillin at 37° C. After the culture reached an A590 of 1.0, expression of DNA polymerase was induced by the addition of 0.2% arabinose for 3 hr. Cells were harvested by centrifugation and stored at −70° C.
as §2
(§6) The assays were conducted in the presence of 1.5 mM MgCl2 at 55° C. for all enzymes except the Caldibacillus cellulovorans CompA.2 enzyme where 2 mM MgCl2 and 45° C. were used.

[4] = biological target: T3, Clostridium stercorarium DNA polymerase, N-terminal His6 tag (Cst-His), SEQ ID NO:14 (Thermoclostridium stercorarium, UniProt L7VMI6); experiment: as above; settings: Table 34, DNA template, 2 mM MgCl2, 45 °C per footnote
T3 sequence (L7VMI6 with tags, fused parts or gaps): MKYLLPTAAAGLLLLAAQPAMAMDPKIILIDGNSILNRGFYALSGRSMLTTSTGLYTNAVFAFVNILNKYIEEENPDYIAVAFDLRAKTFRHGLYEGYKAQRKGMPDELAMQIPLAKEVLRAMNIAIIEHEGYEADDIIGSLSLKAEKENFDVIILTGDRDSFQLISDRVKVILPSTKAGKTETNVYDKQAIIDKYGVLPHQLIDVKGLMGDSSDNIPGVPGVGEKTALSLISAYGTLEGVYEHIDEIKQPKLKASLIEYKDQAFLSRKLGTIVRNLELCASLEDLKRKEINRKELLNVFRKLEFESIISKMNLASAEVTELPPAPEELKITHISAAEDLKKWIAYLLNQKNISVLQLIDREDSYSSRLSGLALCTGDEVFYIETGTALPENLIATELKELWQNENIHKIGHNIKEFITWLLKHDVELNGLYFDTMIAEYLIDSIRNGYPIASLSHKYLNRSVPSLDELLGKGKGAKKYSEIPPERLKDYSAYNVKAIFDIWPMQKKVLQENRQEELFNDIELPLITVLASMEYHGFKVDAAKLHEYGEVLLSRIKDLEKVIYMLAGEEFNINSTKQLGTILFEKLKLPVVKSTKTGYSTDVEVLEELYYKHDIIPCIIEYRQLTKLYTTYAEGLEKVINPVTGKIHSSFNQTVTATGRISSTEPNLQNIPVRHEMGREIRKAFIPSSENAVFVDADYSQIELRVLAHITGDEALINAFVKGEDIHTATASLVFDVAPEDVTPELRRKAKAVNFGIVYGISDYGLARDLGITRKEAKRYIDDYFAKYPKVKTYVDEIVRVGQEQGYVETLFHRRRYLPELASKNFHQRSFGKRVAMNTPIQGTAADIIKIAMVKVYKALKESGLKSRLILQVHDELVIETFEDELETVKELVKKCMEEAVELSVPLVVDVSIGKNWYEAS
From the text: as §4, §5, §2, §6

[5] = substrate: Cc1cn([C@H]2C[C@H](O)[C@@H](COP(=O)(O)OP(=O)(O)OP(=O)(O)O)O2)c(=O)[nH]c1=O; experiment: purified protein, by the assay type; settings: 55 °C, mean ± SD
[6] = Table 34, DNA template, 2 mM MgCl2, 45 °C per footnote
[7] = read-out: Km DNA (dGTP), Table 34, DNA template, 2 mM MgCl2, 45 °C per footnote
[8] = other: Table 40, (dA)270•(dT)40, dTTP
[9] = other: Table 40, (rA)250•(dT)30, dTTP

Molecule: Nc1nc2c(ncn2[C@H]2C[C@H](O)[C@@H](COP(=O)(O)OP(=O)(O)OP(=O)(O)O)O2)c(=O)[nH]1 [dGTP]
- Kcat DNA (dGTP) [1, 6]: 17.5 s⁻¹
- kCAT DNA-DNA ([1]; Table 40, (dC)n•(dG)35, dGTP, 72 °C, mean ± SD): 130 ± 32 s⁻¹
- Km [1, 7]: 17.2 µM
- Kcat DNA (dGTP) [2, 6]: 15.4 s⁻¹
- kCAT DNA-DNA ([2]; Table 40, (dC)n•(dG)35, dGTP, 37 °C, mean ± SD): 16 ± 2 s⁻¹
- Km [2, 7]: 2.4 µM
- Kcat DNA (dGTP) [3]: 57 s⁻¹
- Km ([3]; read-out: Km DNA (dGTP)): 17.1 µM
- Kcat DNA (dGTP) [4]: 11.5 s⁻¹
- Km ([4]; read-out: Km DNA (dGTP)): 0.5 µM

B1: Clostridium thermosulfurogenes DNA polymerase, N-terminal His6 tag (Cth-His), SEQ ID NO:15 (Thermoanaerobacterium thermosulfurigenes) (protein)
chain: MKYLLPTAAAGLLLLAAQPAMAMAKFLIIDGNSLMYRAYFALPDLMNSEGMHTNAIYGFSMMLLKLLEEEKPDYIAIAFDKKASTFRHKEYSAYKGTRQSMPEELIEQVDILKDVINAFNIKTIEIEGFEADDIIGTVSKIASESGMDVLIVTGDRDALQLVSANVKVKICKKGITQMDEYDEKAVFEKYEVTPLQFIDLKGLMGDKSDNIPGVPNIGEKTAIKLVKEFGSIENLLMNTDKLKGKIKENVENNAELAVLSKRLATIERNVPIDIDLNEYAVKNYDVNKLTELFEKLEFSSLISDLKDDSRDTKDIKEWPVRDFTYVKNVLGKFDVLSLYPFIYDGKIKAVSFACGDGSFFVEIDDYDNFKLLNNDKLTLIGHDLKDFLVNISYCGIELNCKILDTAIMTYLLNPSESNYDISRVLKKYLKEDLQNIDDIVGKGRNKKSYDDIDKKLLVDYMCSAASNLSKLKDKLMSFIKEMEMEDLLKNVEIPLIEVLKSMEVYGFTLDKDVLRSISKEIDEKTDKIVKDIYDAAGYEFNINSTKQLSEFLFDKLNLPAIKKTKTGYSTDMEVLAELIPYNDIVGEIIEYRQLMKLKSTYIDGFIPIMDENNRVHSTFKQTVAATGRISSTEPNLQNIPVREEFGRRIRKAFVSSYEDGLIISADYSQIELRVLAHLSEDEKLIESFLNNEDIHLRTASEVFKVSKEEVTSEMRRRAKAVNFGIVYGISDYGLSKDLKISRKEAKEYIDNYFDRYKGVKNYIDSIVKFAKENGYVTTILNRRRYIPEINSKNFNQRSFGERMAMNTPIQGSAADIIKMSMVKVYNELKERGLKSRLILQVHDELIIDTHPDEVEIVKELLKSIMENIIKLKVPLVVDIGQGKNWYDAK
- kcat [5, 8]: 28 ± 1 s⁻¹
- kcat [5, 9]: 16 ± 1 s⁻¹

B2: Clostridium stercorarium DNA polymerase, N-terminal His6 tag (Cst-His), SEQ ID NO:14 (Thermoclostridium stercorarium subsp. stercorarium DSM 8532) (protein)
chain: MKYLLPTAAAGLLLLAAQPAMAMDPKIILIDGNSILNRGFYALSGRSMLTTSTGLYTNAVFAFVNILNKYIEEENPDYIAVAFDLRAKTFRHGLYEGYKAQRKGMPDELAMQIPLAKEVLRAMNIAIIEHEGYEADDIIGSLSLKAEKENFDVIILTGDRDSFQLISDRVKVILPSTKAGKTETNVYDKQAIIDKYGVLPHQLIDVKGLMGDSSDNIPGVPGVGEKTALSLISAYGTLEGVYEHIDEIKQPKLKASLIEYKDQAFLSRKLGTIVRNLELCASLEDLKRKEINRKELLNVFRKLEFESIISKMNLASAEVTELPPAPEELKITHISAAEDLKKWIAYLLNQKNISVLQLIDREDSYSSRLSGLALCTGDEVFYIETGTALPENLIATELKELWQNENIHKIGHNIKEFITWLLKHDVELNGLYFDTMIAEYLIDSIRNGYPIASLSHKYLNRSVPSLDELLGKGKGAKKYSEIPPERLKDYSAYNVKAIFDIWPMQKKVLQENRQEELFNDIELPLITVLASMEYHGFKVDAAKLHEYGEVLLSRIKDLEKVIYMLAGEEFNINSTKQLGTILFEKLKLPVVKSTKTGYSTDVEVLEELYYKHDIIPCIIEYRQLTKLYTTYAEGLEKVINPVTGKIHSSFNQTVTATGRISSTEPNLQNIPVRHEMGREIRKAFIPSSENAVFVDADYSQIELRVLAHITGDEALINAFVKGEDIHTATASLVFDVAPEDVTPELRRKAKAVNFGIVYGISDYGLARDLGITRKEAKRYIDDYFAKYPKVKTYVDEIVRVGQEQGYVETLFHRRRYLPELASKNFHQRSFGKRVAMNTPIQGTAADIIKIAMVKVYKALKESGLKSRLILQVHDELVIETFEDELETVKELVKKCMEEAVELSVPLVVDVSIGKNWYEAS
- kcat [5, 8]: 40 ± 13 s⁻¹
- kcat [5, 9]: 88 ± 5 s⁻¹
